From patent US5760022A, “Pharmaceutical composition with improved bioavailability of inositol phosphate” (Perstorp AB, priority 1994, dated 1998)
Structures can show the parent of a compound that is named as a salt.

Assay: bioavailability of IP3 in pigs: concentration of IP3 in blood samples and AUC after intravenous injection, intraduodenal/oral formulation and oral sodium salt
Conditions: pig, in vivo
Protocol: The blood samples were assayed for the content of IP3 and these measurements were used for the calculation of the reference data as 100% of the substance is introduced into the blood stream after an intravenous injection. Another five pigs were given the composition comprising the mixture of 2,3-dihydroxypropyl octanoate and IP3 as an intraduodenal dosing. The animals were treated with Atropin and anaesthetized with Hypnodil®/Sedaperone® whereafter a laparotomy was carried out. Blood samples were collected at the time intervals mentioned above and the concentration of IP3 was determined in each sample. By calculating the area under the curve (AUC) from a graph where the concentration versus time is shown and comparing the obtained value with a similar calculation from the data after intravenous injection of the substance the bioavailability for this specific formulation is obtained.
Blood samples were collected at the same time intervals as above and the concentration of IP3 was determined. Following a similar procedure the AUC was determined.
Blood samples were collected and the concentration of IP3 were determined.

Normalized AUC (%): 3%
Normalized AUC (%) (iv): 100%
concentration at 0.25 h (iv): 53700 nM
concentration at 0.5 h (iv): 40000 nM
concentration at 1 h (iv): 21600 nM
concentration at 1.5 h (iv): 12100 nM
concentration at 4 h (iv): 2600 nM
concentration at 8 h (iv): 600 nM
conc IP3 (iv, 0 min): 0 nM
concentration at 0.5 h (po): 600 nM
concentration at 1.5 h (po): 500 nM
concentration at 2 h (po): 600 nM
concentration at 4 h (po): 400 nM
concentration at 6 h (po): 400 nM
conc IP3 (po, 0 min): 0 nM
conc IP3 (po, 480 min): 0 nM
Structure (SMILES): O=P(O)(O)O[C@@H]1[C@H](OP(=O)(O)O)[C@H](O)[C@@H](O)[C@H](O)[C@H]1OP(=O)(O)O [sodium salt of IP3, D-myo-inositol-1,2,6-trisphosphate]
